This test concerns MV-4-11 cells. Put plainly: Gene expression microarray analysis (Affymetrix PrimeView) and GSEA. It is filed as cell-based, human. Also on record: RFU PODN (11730768_x_at) / Fold change /veh PODN (11730768_x_at) / RFU LINC00158 (11744669_a_at) / Fold change /veh LINC00158 (11744669_a_at) / RFU DUSP10 (11751237_a_at) / Fold change /veh DUSP10 (11751237_a_at) / RFU ID3 (11757404_x_at) / Fold change /veh ID3 (11757404_x_at) / RFU PLEKHG5 (11737974_s_at) / Fold change /veh PLEKHG5 (11737974_s_at) / RFU LRRC4B (11730491_at) / Fold change /veh LRRC4B (11730491_at) / RFU GIMAP4 (11747438_a_at) / Fold change /veh GIMAP4 (11747438_a_at) / RFU KRT8 (11758183_x_at) / Fold change /veh KRT8 (11758183_x_at) / RFU CNN1 (11734310_a_at) / Fold change /veh CNN1 (11734310_a_at) / RFU VPS37D (11726825_at) / Fold change /veh VPS37D (11726825_at) / RFU C10orf10 (11716522_x_at) / Fold change /veh C10orf10 (11716522_x_at) / RFU KIR2DL2 /// KIR2DL4 /// KIR2DL5A /// KIR2DL5B /// KIR2DS1 /// KIR2DS2 /// KIR2DS3 /// KIR2DS4 /// KIR3DL3 /// KIR3DL3 /// KIR3DS1 (11738374_at) / Fold change /veh KIR2DL2 /// KIR2DL4 /// KIR2DL5A /// KIR2DL5B /// KIR2DS1 /// KIR2DS2 /// KIR2DS3 /// KIR2DS4 /// KIR3DL3 /// KIR3DL3 /// KIR3DS1 (11738374_at) / RFU C1QL1 (11718748_at) / Fold change /veh C1QL1 (11718748_at) / RFU TMPRSS4 (11747572_a_at) / Fold change /veh TMPRSS4 (11747572_a_at) / RFU HAMP (11756126_x_at) / Fold change /veh HAMP (11756126_x_at) / RFU RNFT2 (11725882_a_at) / Fold change /veh RNFT2 (11725882_a_at) / RFU NR4A2 (11747474_a_at) / Fold change /veh NR4A2 (11747474_a_at) / RFU ABCC12 (11746883_a_at) / Fold change /veh ABCC12 (11746883_a_at) / RFU TMEM136 (11760407_x_at) / Fold change /veh TMEM136 (11760407_x_at) / RFU CLDN22 /// WWC2 (11732394_at) / Fold change /veh CLDN22 /// WWC2 (11732394_at) / RFU HLA-DPB1 (11760878_x_at) / Fold change /veh HLA-DPB1 (11760878_x_at) / RFU SPINT1 (11716480_a_at) / Fold change /veh SPINT1 (11716480_a_at) / RFU GAP43 (11754022_s_at) / Fold change /veh GAP43 (11754022_s_at) / RFU A4GNT (11735810_at) / Fold change /veh A4GNT (11735810_at) / RFU PRB3 (11715151_x_at) / Fold change /veh PRB3 (11715151_x_at) / RFU TUBB4B (11761932_at) / Fold change /veh TUBB4B (11761932_at) / RFU CAPN14 (11732068_a_at) / Fold change /veh CAPN14 (11732068_a_at) / RFU TMCC2 (11721928_a_at) / Fold change /veh TMCC2 (11721928_a_at) / RFU IRGQ (11745062_a_at) / Fold change /veh IRGQ (11745062_a_at) / RFU FAM174B (11720279_a_at) / Fold change /veh FAM174B (11720279_a_at) / RFU TMPRSS4 (11748680_a_at) / Fold change /veh TMPRSS4 (11748680_a_at) / RFU FAM212B (11763350_a_at) / Fold change /veh FAM212B (11763350_a_at) / RFU PLEKHG5 (11743358_a_at) / Fold change /veh PLEKHG5 (11743358_a_at) / RFU ZSCAN30 (11745921_a_at) / Fold change /veh ZSCAN30 (11745921_a_at) / RFU CMKLR1 (11741424_a_at) / Fold change /veh CMKLR1 (11741424_a_at) / RFU LOC101060620 /// MAPK8IP1 (11723275_at) / Fold change /veh LOC101060620 /// MAPK8IP1 (11723275_at) / RFU SPTSSB (11747773_x_at) / Fold change /veh SPTSSB (11747773_x_at) / RFU PRSS12 (11739890_at) / Fold change /veh PRSS12 (11739890_at) / RFU BIN1 (11741810_x_at) / Fold change /veh BIN1 (11741810_x_at) / RFU WNT11 (11732464_a_at) / Fold change /veh WNT11 (11732464_a_at) / RFU C10orf10 (11716521_a_at) / Fold change /veh C10orf10 (11716521_a_at) / RFU C5orf56 (11738089_at) / Fold change /veh C5orf56 (11738089_at) / RFU CYB561 (11721691_x_at) / Fold change /veh CYB561 (11721691_x_at) / RFU ANKRD19P (11752326_a_at) / Fold change /veh ANKRD19P (11752326_a_at) / RFU OR2T12 /// OR2T33 /// OR2T8 (11738714_s_at) / Fold change /veh OR2T12 /// OR2T33 /// OR2T8 (11738714_s_at) / RFU VCAN (11748164_a_at) / Fold change /veh VCAN (11748164_a_at) / RFU JSRP1 (11732532_at) / Fold change /veh JSRP1 (11732532_at) / RFU KRTAP10-11 (11738290_x_at) / Fold change /veh KRTAP10-11 (11738290_x_at) / RFU MYO3A (11730013_a_at) / Fold change /veh MYO3A (11730013_a_at) / RFU EBF3 (11725865_a_at) / Fold change /veh EBF3 (11725865_a_at) / RFU CAMK2N1 (11719241_x_at) / Fold change /veh CAMK2N1 (11719241_x_at) / RFU C5orf56 (11738088_a_at) / Fold change /veh C5orf56 (11738088_a_at) / RFU OLFML3 (11715873_a_at) / Fold change /veh OLFML3 (11715873_a_at) / RFU LOC100653217 /// NTM (11731650_a_at) / Fold change /veh LOC100653217 /// NTM (11731650_a_at) / RFU MAPK11 (11762145_a_at) / Fold change /veh MAPK11 (11762145_a_at) / RFU FIZ1 (11724087_x_at) / Fold change /veh FIZ1 (11724087_x_at) / RFU OASL (11726364_x_at) / Fold change /veh OASL (11726364_x_at) / RFU SOX15 (11748057_x_at) / Fold change /veh SOX15 (11748057_x_at) / RFU CD79A (11719716_a_at) / Fold change /veh CD79A (11719716_a_at) / RFU HIST1H1D (11736915_at) / Fold change /veh HIST1H1D (11736915_at) / RFU CASKIN2 (11723855_a_at) / Fold change /veh CASKIN2 (11723855_a_at) / RFU LOC730098 (11760151_x_at) / Fold change /veh LOC730098 (11760151_x_at) / RFU OR4N2 (11742367_at) / Fold change /veh OR4N2 (11742367_at) / RFU PRRT2 (11749266_a_at) / Fold change /veh PRRT2 (11749266_a_at) / RFU SNX32 (11753110_a_at) / Fold change /veh SNX32 (11753110_a_at) / RFU CDHR5 (11726645_a_at) / Fold change /veh CDHR5 (11726645_a_at) / RFU RCAN1 (11760418_a_at) / Fold change /veh RCAN1 (11760418_a_at) / RFU FAM167A (11723789_a_at) / Fold change /veh FAM167A (11723789_a_at) / RFU FAM26E (11764081_at) / Fold change /veh FAM26E (11764081_at) / RFU ISYNA1 (11749810_s_at) / Fold change /veh ISYNA1 (11749810_s_at) / RFU ACY1 (11761880_at) / Fold change /veh ACY1 (11761880_at) / RFU 11764098_at / Fold change /veh 11764098_at / RFU SAMD14 (11745864_x_at) / Fold change /veh SAMD14 (11745864_x_at) / RFU NPB (11741838_a_at) / Fold change /veh NPB (11741838_a_at) / RFU TMPRSS6 (11731388_a_at) / Fold change /veh TMPRSS6 (11731388_a_at) / RFU KRTAP10-2 (11738614_at) / Fold change /veh KRTAP10-2 (11738614_at) / RFU ARHGAP8 /// PRR5-ARHGAP8 (11727945_x_at) / Fold change /veh ARHGAP8 /// PRR5-ARHGAP8 (11727945_x_at) / RFU KRTAP5-7 /// NADSYN1 (11734609_at) / Fold change /veh KRTAP5-7 /// NADSYN1 (11734609_at) / RFU RASL12 (11751679_a_at) / Fold change /veh RASL12 (11751679_a_at) / RFU CDKN2B (11736163_a_at) / Fold change /veh CDKN2B (11736163_a_at) / RFU PRF1 (11729649_at) / Fold change /veh PRF1 (11729649_at) / RFU, ZNF638 /// ZNF638-IT1 / Fold change vs veh, ZNF638 /// ZNF638-IT1 / RFU, PANK3 / Fold change vs veh, PANK3 / RFU, SH3YL1 / Fold change vs veh, SH3YL1 / RFU, ZEB2 / Fold change vs veh, ZEB2 / RFU, NRIP1 / Fold change vs veh, NRIP1 / RFU, PTTG1IP / Fold change vs veh, PTTG1IP / RFU, CAPN2 / Fold change vs veh, CAPN2 / RFU, MED14 / Fold change vs veh, MED14 / RFU, SNORA58 / Fold change vs veh, SNORA58 / RFU, C1orf63 / Fold change vs veh, C1orf63 / RFU, LRRFIP1 / Fold change vs veh, LRRFIP1 / RFU, NDUFAF7 / Fold change vs veh, NDUFAF7 / RFU, SLC12A2 / Fold change vs veh, SLC12A2 / RFU, IBTK / Fold change vs veh, IBTK / RFU, ESF1 / Fold change vs veh, ESF1 / Fold change vs veh, TMEM50B / RFU, TAOK1 / Fold change vs veh, TAOK1 / RFU, ACBD3 / Fold change vs veh, ACBD3 / RFU, TMA16 / Fold change vs veh, TMA16 / RFU, RWDD3 / Fold change vs veh, RWDD3 / RFU, BCAT1 / Fold change vs veh, BCAT1 / RFU, EDEM3 / Fold change vs veh, EDEM3 / RFU, TMEM33 / Fold change vs veh, TMEM33 / RFU, WDR75 / Fold change vs veh, WDR75 / RFU, AHCTF1 / Fold change vs veh, AHCTF1 / RFU, TFRC / Fold change vs veh, TFRC / RFU, ZDHHC17 / Fold change vs veh, ZDHHC17 / RFU, NOM1 / Fold change vs veh, NOM1 / RFU, ARL8B / Fold change vs veh, ARL8B / RFU, ZBTB11 / Fold change vs veh, ZBTB11 / RFU, TAMM41 / Fold change vs veh, TAMM41 / RFU, KIAA1704 /// LOC100996395 / Fold change vs veh, KIAA1704 /// LOC100996395 / RFU, ING1 / Fold change vs veh, ING1 / RFU, TRMT61B / Fold change vs veh, TRMT61B / RFU, FUBP3 / Fold change vs veh, FUBP3 / RFU, TP53 / Fold change vs veh, TP53 / RFU, TNKS2 / Fold change vs veh, TNKS2 / RFU, ZFP14 / Fold change vs veh, ZFP14 / RFU, ACTR2 / Fold change vs veh, ACTR2 / RFU, PPP3R1 / Fold change vs veh, PPP3R1 / RFU, PIK3R1 / Fold change vs veh, PIK3R1 / RFU, HNRNPA1 / Fold change vs veh, HNRNPA1 / RFU, RNF170 / Fold change vs veh, RNF170 / RFU, ZNF28 / Fold change vs veh, ZNF28 / RFU, RNGTT / Fold change vs veh, RNGTT / RFU, OGT / Fold change vs veh, OGT / RFU, BRD1 / Fold change vs veh, BRD1 / RFU, MARS / Fold change vs veh, MARS / RFU, ZNF655 / Fold change vs veh, ZNF655 / RFU, FAHD1 / Fold change vs veh, FAHD1 / RFU, BDP1 / Fold change vs veh, BDP1 / RFU, LRRCC1 / Fold change vs veh, LRRCC1 / RFU, ARID1A / Fold change vs veh, ARID1A / RFU, ZNF146 / Fold change vs veh, ZNF146 / RFU, ZNF330 / Fold change vs veh, ZNF330 / RFU, GPN3 / Fold change vs veh, GPN3 / RFU, C9orf123 / Fold change vs veh, C9orf123 / RFU, N4BP2L2 / Fold change vs veh, N4BP2L2 / RFU, ARFIP1 / Fold change vs veh, ARFIP1 / RFU, FAM179B / Fold change vs veh, FAM179B / RFU, BCL10 / Fold change vs veh, BCL10 / RFU, UHRF1BP1L / Fold change vs veh, UHRF1BP1L / RFU, BET1 / Fold change vs veh, BET1 / RFU, CNOT2 / Fold change vs veh, CNOT2 / RFU, ZNF268 / Fold change vs veh, ZNF268 / Fold change vs veh, ZNF507 / RFU, DGCR2 / Fold change vs veh, DGCR2 / RFU, WDSUB1 / Fold change vs veh, WDSUB1 / Fold change vs veh, HSP90B1 /// MIR3652 / RFU, ADSS / Fold change vs veh, ADSS / RFU, GK / Fold change vs veh, GK / RFU, ZNF148 / Fold change vs veh, ZNF148 / RFU, TAF9 / Fold change vs veh, TAF9 / RFU, SLC1A5 / Fold change vs veh, SLC1A5 / RFU, SLMO2 / Fold change vs veh, SLMO2 / RFU, ABCC4 / Fold change vs veh, ABCC4 / RFU, LOC101060439 /// RAP1B / Fold change vs veh, LOC101060439 /// RAP1B / RFU, RFX7 / Fold change vs veh, RFX7 / RFU, GTPBP10 / Fold change vs veh, GTPBP10 / RFU, CNEP1R1 / Fold change vs veh, CNEP1R1 / RFU, BIVM-ERCC5 /// ERCC5 / Fold change vs veh, BIVM-ERCC5 /// ERCC5 / RFU, ILF3 / Fold change vs veh, ILF3 / RFU 11762660_at / Fold change /veh 11762660_at / RFU VCAN (11757783_s_at) / Fold change /veh VCAN (11757783_s_at) / RFU DDX43 (11728927_at) / Fold change /veh DDX43 (11728927_at) / RFU KRT8 (11758188_x_at) / Fold change /veh KRT8 (11758188_x_at) / RFU NKD1 (11759106_at) / Fold change /veh NKD1 (11759106_at) / RFU SRD5A1 (11742802_a_at) / Fold change /veh SRD5A1 (11742802_a_at) / RFU TPSAB1 /// TPSB2 (11721975_s_at) / Fold change /veh TPSAB1 /// TPSB2 (11721975_s_at) / RFU GSTM3 (11746129_a_at) / Fold change /veh GSTM3 (11746129_a_at) / RFU IL23R (11737362_x_at) / Fold change /veh IL23R (11737362_x_at) / RFU TMEM51 (11727254_a_at) / Fold change /veh TMEM51 (11727254_a_at) / RFU PIWIL2 (11732686_x_at) / Fold change /veh PIWIL2 (11732686_x_at) / RFU ORM1 (11744905_x_at) / Fold change /veh ORM1 (11744905_x_at) / RFU CCDC152 (11743942_at) / Fold change /veh CCDC152 (11743942_at) / RFU ECM1 (11717891_a_at) / Fold change /veh ECM1 (11717891_a_at) / RFU IL23R (11748794_a_at) / Fold change /veh IL23R (11748794_a_at) / RFU TNFAIP8L3 (11732012_x_at) / Fold change /veh TNFAIP8L3 (11732012_x_at) / RFU MBOAT4 (11741988_at) / Fold change /veh MBOAT4 (11741988_at) / RFU 11764193_at / Fold change /veh 11764193_at / RFU TMEM53 (11763286_at) / Fold change /veh TMEM53 (11763286_at) / RFU MAGEB2 (11727129_at) / Fold change /veh MAGEB2 (11727129_at) / RFU TMEM200A (11744735_a_at) / Fold change /veh TMEM200A (11744735_a_at) / RFU CCDC152 (11751479_a_at) / Fold change /veh CCDC152 (11751479_a_at) / RFU FAM211A (11726209_a_at) / Fold change /veh FAM211A (11726209_a_at) / RFU RGS16 (11746705_a_at) / Fold change /veh RGS16 (11746705_a_at) / RFU VCAN (11755009_s_at) / Fold change /veh VCAN (11755009_s_at) / RFU RHOB (11743442_s_at) / Fold change /veh RHOB (11743442_s_at) / RFU RGS16 (11720943_a_at) / Fold change /veh RGS16 (11720943_a_at) / RFU RGS16 (11720944_at) / Fold change /veh RGS16 (11720944_at) / RFU, VPS4B / Fold change vs veh, VPS4B / RFU, CREB1 / Fold change vs veh, CREB1 / RFU, DNAJC13 / Fold change vs veh, DNAJC13 / RFU, GNAQ / Fold change vs veh, GNAQ / RFU, CDK5R1 / Fold change vs veh, CDK5R1 / RFU, ZRANB3 / Fold change vs veh, ZRANB3 / RFU, CUL4A / Fold change vs veh, CUL4A / RFU, CCNY / Fold change vs veh, CCNY / RFU, UFL1 / Fold change vs veh, UFL1 / RFU, COG3 / Fold change vs veh, COG3 / RFU, DIAPH2 / Fold change vs veh, DIAPH2 / RFU, SKA2 / Fold change vs veh, SKA2 / RFU, AFF3 / Fold change vs veh, AFF3 / RFU, LMF1 / Fold change vs veh, LMF1 / RFU, IPO11 / Fold change vs veh, IPO11 / RFU, DFFB / Fold change vs veh, DFFB / RFU, FOXP1 / Fold change vs veh, FOXP1 / RFU, CARD8 / Fold change vs veh, CARD8 / RFU, STRN3 / Fold change vs veh, STRN3 / RFU, ADK / Fold change vs veh, ADK / RFU, RASSF2 / Fold change vs veh, RASSF2 / RFU, WIPF1 / Fold change vs veh, WIPF1 / RFU, LARP1B / Fold change vs veh, LARP1B / RFU, RASA1 / Fold change vs veh, RASA1 / RFU, RB1 / Fold change vs veh, RB1 / RFU, PPFIA1 / Fold change vs veh, PPFIA1 / RFU, MAT2A / Fold change vs veh, MAT2A / RFU, CCT5 / Fold change vs veh, CCT5 / RFU, WDR92 / Fold change vs veh, WDR92 / RFU, CUX1 / Fold change vs veh, CUX1 / RFU, TTC7A / Fold change vs veh, TTC7A / RFU, TMEM135 / Fold change vs veh, TMEM135 / RFU, DEPTOR / Fold change vs veh, DEPTOR / RFU, CPM / Fold change vs veh, CPM / RFU, DNAJB6 / Fold change vs veh, DNAJB6 / RFU, CACNA2D3 / Fold change vs veh, CACNA2D3 / RFU, DTX4 / Fold change vs veh, DTX4 / RFU, TFCP2 / Fold change vs veh, TFCP2 / RFU, GMCL1 /// GMCL1P1 / Fold change vs veh, GMCL1 /// GMCL1P1 / RFU, AEBP2 / Fold change vs veh, AEBP2 / RFU, SNHG1 /// SNORD22 /// SNORD25 /// SNORD26 /// SNORD27 /// SNORD28 /// SNORD29 /// SNORD31 / Fold change vs veh, SNHG1 /// SNORD22 /// SNORD25 /// SNORD26 /// SNORD27 /// SNORD28 /// SNORD29 /// SNORD31 / Fold change (Aza/veh), C12orf56 (ProbeSet 11735607_a_at) / Fold change (ACY-1035/veh), C12orf56 (ProbeSet 11735607_a_at) / Fold change (Aza/veh), FGFR1OP (ProbeSet 11751329_s_at) / Fold change (ACY-1035/veh), FGFR1OP (ProbeSet 11751329_s_at) / Fold change (Aza/veh), VPS36 (ProbeSet 11739960_a_at) / Fold change (ACY-1035/veh), VPS36 (ProbeSet 11739960_a_at) / RFU SYPL1 (11715823_x_at) / Fold change /veh SYPL1 (11715823_x_at) / RFU IGFBP7 (11715501_s_at) / Fold change /veh IGFBP7 (11715501_s_at) / RFU REEP3 (11722064_at) / Fold change /veh REEP3 (11722064_at) / RFU IGLL1 (11728026_x_at) / Fold change /veh IGLL1 (11728026_x_at): dose or concentration left out as unconfirmed. Conditions: MV-4-11 cells, 48 hours.

SMILES strings stand for the structures.

As to `Nc1ncn([C@@H]2O[C@H](CO)[C@@H](O)[C@H]2O)c(=O)n1` [azacitidine], the “RFU OASL (11726364_x_at)” value amounted to 34.50 RFU.
